Assay results: patent US10433544B2, “Herbicide” (University of Kentucky Research Foundation, priority 2017, dated 2019)

Experiments:
[1] = biological target: T1, sorbitol dehydrogenase (SDH) (Ovis aries, UniProt P07846); settings: cited from earlier work
T1 sequence (P07846 1-354): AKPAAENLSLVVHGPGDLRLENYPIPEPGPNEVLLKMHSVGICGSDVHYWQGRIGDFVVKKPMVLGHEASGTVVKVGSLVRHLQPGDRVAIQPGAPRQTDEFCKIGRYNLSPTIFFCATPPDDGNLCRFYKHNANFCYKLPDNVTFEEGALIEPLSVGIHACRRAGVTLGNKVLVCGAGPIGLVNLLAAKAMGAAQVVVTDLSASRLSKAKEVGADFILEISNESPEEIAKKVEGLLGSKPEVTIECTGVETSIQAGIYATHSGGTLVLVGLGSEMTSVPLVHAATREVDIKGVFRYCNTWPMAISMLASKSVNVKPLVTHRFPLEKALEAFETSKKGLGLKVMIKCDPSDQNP

[2] = tested on: seed of alfalfa, dandelion and mixed grasses; assay: Seed germination in 300 mM solutions of fructose and polyols (FIG. 1); type: in vivo; settings: ribitol/xylitol 150 mM + 150 mM, 8 days of incubation
Procedure: FIG. 1 includes a chart showing the effect of 300 mM solutions of fructose and polyols, and a 150 mM ribitol plus 150 mM xylitol (R+X) formulation on seed germination. Means±standard deviation are across alfalfa, dandelion and mixed grasses after 8 days of incubation.
Seed of several species were incubated with 300 mM solutions of fructose, inositol, sorbitol, ribitol, xylitol as well as a ribitol/xylitol solution.

[3] = tested on: growing plants of several weed species, including clover and pigweed; assay: Container studies, application to growing plants of several weed species (FIG. 3); type: in vivo, white clover and pigweed; settings: for effect of application on growing plants: 300 mM total concentration, twice a week for 2 weeks; for rank order of the effect / severity of effect across species: 300 mM; for rank order of the effect: injury and death of growing plants; for severity of effect across species: container studies
Procedure: FIG. 3 includes images showing the effect of application of selected sugars and polyols twice a week for 2 weeks to white clover (A) and pigweed (B) plants.
(§1) In container studies, fructose, inositol, sorbitol, ribitol, xylitol as well as a ribitol/xylitol solution were applied at 300 mM total concentration to plants including white clover and pigweed. […] Other common sugars like glucose and fructose had no effect. […] Due to the desire for a broad spectrum herbicide that affected both seed germination and plant growth the most, and to keep the most expensive component, ribitol, to a low effective level, we concluded that the 150 mM ribitol/150 mM xylitol formulation (300 mM combined concentration) was the optimum for field tests.

[4] = tested on: seed germination of numerous plant species; assay: Ribitol toxicity effect on seed germination, numerous plant species; type: in vivo; settings: ribitol with no adjuvant
Excerpt: An increasing number of species have been identified as bearing the SDH gene and activity (Jia et al., […]), so most weed species could likely metabolize it.

[5] = tested on: seed of turfgrass; assay: Turfgrass seed germination in xylitol, ribitol and ribitol/xylitol solutions (FIG. 2A); type: in vivo; settings: total concentrations 100 to 300 mM, 10 days
Procedure: (§2) FIG. 2 includes images of grass (A) and Dutch white clover (B) seed germination after 10 days in solutions of xylitol alone, ribitol alone, and xylitol+ribitol, at total concentrations of 100 to 300 mM (grass) or 100 to 400 mM (clover).
(§3) Seed of turfgrass (FIG. 2A) and Dutch white clover (FIG. 2B) were incubated with solutions of xylitol, ribitol, and a ribitol/xylitol solution at 100 to 300 mM (A) or 100 to 400 mM (B). […] The clover seed was in developmental arrest at 400 mM ribitol and 300 mM ribitol/xylitol.

[6] = tested on: seed of Dutch white clover; assay: Dutch white clover seed germination in xylitol, ribitol and ribitol/xylitol solutions (FIG. 2B); type: in vivo; settings: total concentrations 100 to 400 mM, 10 days
Procedure: as §2, §3

[7] = tested on: dandelion plants; assay: Container studies, spraying of dandelion plants (FIG. 4); type: in vivo; settings: 300 mm, ribitol+xylitol each at 150 mM, sprayed twice weekly for 2 weeks
Procedure: FIG. 4 includes images showing the effect of application of […] fructose, glucose, sorbitol, ribitol, xylitol, or ribitol+xylitol (each at 150 mM) twice weekly for 2 weeks on dandelion plants.
as §1

[8] = tested on: wild type Arabidopsis seeds; assay: Seed germination with ribitol and SDH specific inhibitor (FIG. 8), Arabidopsis; type: in vivo; settings: 150 mM ribitol, 0.5 mM CP-470711, six days
Procedure: (§4) FIG. 8 includes images showing the effect of blocking SDH activity with (A) water (B) 150 mM ribitol (C) the SDH-specific inhibitor CP-470711(Pfizer) and (D) ribitol+CP-470711 on sensitivity of seed germination of Wild Type Arabidopsis, tomato, and rice for 6 days.
(§5) The effect of blocking SDH activity with an SDH specific inhibitor was explored with application to wild type Arabidopsis, tomato and rice seeds for six days. […] Each compound alone at the same concentration had no effect.

[9] = tested on: tomato seeds; assay: Seed germination with ribitol and SDH specific inhibitor (FIG. 8), tomato; type: in vivo; settings: 150 mM ribitol, 0.5 mM CP-470711, six days
Procedure: as §4, §5

[10] = tested on: rice seeds; assay: Seed germination with ribitol and SDH specific inhibitor (FIG. 8), rice; type: in vivo; settings: 150 mM ribitol, 0.5 mM CP-470711, six days
Procedure: as §4, §5

[11] = tested on: sdh-knockout mutant plants and Wild Type plants; settings: 50 mM ribitol, cited from earlier work
[12] = tested on: seed germination; settings: when it cannot be metabolized properly; cited from earlier work

SMILES: SCc1ccccc1 [1-thio-1-phenylmethane]
- SDH inhibition [1]: effective SDH inhibitors

SMILES: SCCc1ccccc1 [1-thio-2-phenylethane]
- SDH inhibition [1]: effective SDH inhibitors

SMILES: O=C(CO)[C@@H](O)[C@H](O)[C@H](O)CO [fructose, reference compound]
- inhibition of seed germination [2]: only significantly inhibited by the ribitol/xylitol solution
- effect of application on growing plants [3]: no effect

SMILES: O[C@H]1[C@H](O)[C@@H](O)[C@H](O)[C@@H](O)[C@H]1O [inositol, reference compound]
- inhibition of seed germination [2]: only significantly inhibited by the ribitol/xylitol solution

SMILES: OC[C@@H](O)[C@@H](O)[C@@H](O)CO [ribitol]
- ribitol concentration at which toxicity effect on seed germination occurred [4]: ≥ 300 mM
- inhibition of seed germination [2]: only significantly inhibited by the ribitol/xylitol solution
- concentration at which grass seed was significantly inhibited [5]: 300 mM
- concentration at which clover seed was in developmental arrest [6]: 400 mM
- effect of application on growing plants [3]: caused injury and death
- rank order of the effect [3]: sorbitol<xylitol≤ribitol
- effect on dandelion plants [7]: death of plants
- effect on seed germination [8]: no effect
- effect on seed germination [9]: no effect
- effect on seed germination [10]: no effect
- effect of application on Wild Type plants ([11]; Wild Type plants): no effect
- effect of application on sdh-knockout mutant plants ([11]; well-watered sdh-knockout mutant plants): quick injury and eventual death
- effect on seed germination [12]: inhibited seed germination

SMILES: OC[C@@H](O)[C@@H](O)[C@H](O)[C@@H](O)CO [sorbitol]
- inhibition of seed germination [2]: only significantly inhibited by the ribitol/xylitol solution
- effect of application on growing plants [3]: caused injury and death
- severity of effect across species [3]: caused damage
- rank order of the effect [3]: sorbitol<xylitol≤ribitol

SMILES: OC[C@@H](O)[C@H](O)[C@@H](O)CO [xylitol]
- inhibition of seed germination [2]: only significantly inhibited by the ribitol/xylitol solution
- effect of application on growing plants [3]: caused injury and death
- severity of effect across species [3]: caused damage
- rank order of the effect [3]: sorbitol<xylitol≤ribitol
- effect on dandelion plants [7]: death of plants
